Counter-ions that a name gives are not always drawn.
Assays:
human 5-HT2C receptor = biological target: T1, human 5-HT2C receptor (Homo sapiens, UniProt P28335); assay: calcium mobilization (FLIPR) in CHO cells stably expressing the human 5-HT2C receptor; type: cell-based; conditions: for Emax: CHO, read-out: 5-HT2C Function EMax (%); for EC50: calcium mobilization, read-out: 5-HT2C Function EC50
T1 sequence (P28335 33-458): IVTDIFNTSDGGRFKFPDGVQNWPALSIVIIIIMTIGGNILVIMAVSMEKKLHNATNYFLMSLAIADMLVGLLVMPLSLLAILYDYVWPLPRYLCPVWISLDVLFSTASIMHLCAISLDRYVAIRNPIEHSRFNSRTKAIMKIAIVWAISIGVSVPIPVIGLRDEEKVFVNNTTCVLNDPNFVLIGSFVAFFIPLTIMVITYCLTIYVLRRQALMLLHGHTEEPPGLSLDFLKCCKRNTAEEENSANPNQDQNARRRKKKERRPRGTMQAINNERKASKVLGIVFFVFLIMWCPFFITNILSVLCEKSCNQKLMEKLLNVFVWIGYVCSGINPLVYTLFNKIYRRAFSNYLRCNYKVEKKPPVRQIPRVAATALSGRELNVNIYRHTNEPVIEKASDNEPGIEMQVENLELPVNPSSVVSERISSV

[1] = biological target: T2, human 5-hydroxytryptamine-2C (h5-HT2C) receptor (Homo sapiens, UniProt P28335); assay: [125I]DOI binding to membranes of CHO cells expressing h5-HT2C receptor; conditions: read-out: 5-HT2C Binding Ki avg
T2 construct: expressed in transfected cells; host or cells: CHO (Chinese Hamster Ovary) cells; membrane preparation
T2 sequence (P28335 33-458): T1 sequence (P28335 33-458)

| SMILES | melting point | Emax (human 5-HT2C receptor) [%] | EC50 (human 5-HT2C receptor) [nM] | Ki [1] [nM] |
| --- | --- | --- | --- | --- |
| NC[C@H]1CCc2ccc(Cl)c(-c3ccccc3Cl)c2O1 (as salt: hydrochloride) | 220 to 222 °C | – | – | – |
| NC[C@H]1CCc2ccc(F)c(-c3ccc(Cl)cc3Cl)c2O1 (as salt: hydrochloride) | 164 to 166 °C | – | – | – |
| NC[C@H]1CCc2cc(F)cc(-c3ccccc3-c3ccccc3)c2O1 (as salt: hydrochloride) | 98 °C | – | – | – |
| NC[C@H]1CCc2cccc(-c3c(Cl)cccc3Cl)c2O1 (as salt: hydrochloride) [Compound 36, {[(2R)-8-(2,6-dichlorophenyl)-3,4-dihydro-2H-chromen-2-yl]methyl}amine hydrochloride] | 188 to 190 °C | – | – | – |
| COc1ccccc1-c1cc(F)cc2c1O[C@@H](CN)CC2 (as salt: hydrochloride) [Compound 38, 1-[(2R)-6-fluoro-8-(2-methoxyphenyl)-3,4-dihydro-2H-chromen-2-yl]methanamine hydrochloride] | 100 °C (dec.) | – | – | – |
| NC[C@H]1CCc2cc(F)cc(-c3c(Cl)cccc3Cl)c2O1 (as salt: hydrochloride) [Compound 57, {[(2R)-8-(2,6-dichlorophenyl)-6-fluoro-3,4-dihydro-2H-chromen-2-yl]methyl}amine hydrochloride] | 190 to 192 °C | – | – | – |
| CCNC[C@H]1CCc2cc(F)cc(-c3c(Cl)cccc3Cl)c2O1 (as salt: hydrochloride) [Compound 58, N-{[(2R)-8-(2,6-dichlorophenyl)-6-fluoro-3,4-dihydro-2H-chromen-2-yl]methyl}ethanamine hydrochloride] | > 225 °C | – | – | – |
| NC[C@H]1C=Cc2cc(F)cc(-c3cc(Cl)ccc3Cl)c2O1 (as salt: hydrochloride) [Compound 63, {[(2R)-8-(2,5-dichlorophenyl)-6-fluoro-2H-chromen-2-yl]methyl}amine hydrochloride] | 217 to 219 °C | – | – | – |
| NC[C@H]1C=Cc2cc(F)cc(-c3ccccc3Cl)c2O1 (as salt: hydrochloride) [Compound 64, {[(2R)-8-(2-chlorophenyl)-6-fluoro-2H-chromen-2-yl]methyl}amine hydrochloride] | 145 to 147 °C | – | – | – |
| COc1ccccc1-c1cc(F)cc2c1O[C@@H](CN)C=C2 (as salt: hydrochloride) [Compound 65, {[(2R)-6-fluoro-8-(2-methoxyphenyl)-2H-chromen-2-yl]methyl}amine hydrochloride] | 198 to 200 °C | – | – | – |
| NC[C@H]1C=Cc2cc(F)cc(-c3c(Cl)cccc3Cl)c2O1 (as salt: hydrochloride) [Compound 66, {[(2R)-8-(2,6-dichlorophenyl)-6-fluoro-2H-chromen-2-yl]methyl}amine hydrochloride] | 153 to 155 °C | – | – | – |
| NC[C@@H]1CCc2cc(F)cc(-c3ccccc3Cl)c2O1 [Compound 51, {[(2S)-8-(2-chlorophenyl)-6-fluoro-3,4-dihydro-2H-chromen-2-yl]methyl}amine hydrochloride] | – | 80 | < 50 | 10 to 50 |
| Cc1ccccc1-c1cc(F)cc2c1O[C@H](CN)CC2 [Compound 53, {[(2S)-6-fluoro-8-(2-methylphenyl)-3,4-dihydro-2H-chromen-2-yl]methyl}amine hydrochloride] | – | 70 | 50 to 200 | 10 to 50 |
| NC[C@@H]1CCc2cc(F)cc(-c3cc(Cl)ccc3Cl)c2O1 [Compound 55, {[(2S)-8-(2,5-dichlorophenyl)-6-fluoro-3,4-dihydro-2H-chromen-2-yl]methyl}amine hydrochloride] | – | 70 | 50 to 200 | ≤ 10 |
| NC[C@@H]1CCc2cc(F)cc(-c3ccc(Cl)cc3Cl)c2O1 [Compound 56, {[(2S)-8-(2,4-dichlorophenyl)-6-fluoro-3,4-dihydro-2H-chromen-2-yl]methyl}amine hydrochloride] | – | 80 | 50 to 200 | 10 to 50 |
| NC[C@H]1CCc2cc(F)cc(-c3c(Cl)cccc3Cl)c2O1 [Compound 57, {[(2R)-8-(2,6-dichlorophenyl)-6-fluoro-3,4-dihydro-2H-chromen-2-yl]methyl}amine hydrochloride] | – | 80 | < 50 | ≤ 10 |
| CCNC[C@H]1CCc2cc(F)cc(-c3c(Cl)cccc3Cl)c2O1 [Compound 58, N-{[(2R)-8-(2,6-dichlorophenyl)-6-fluoro-3,4-dihydro-2H-chromen-2-yl]methyl}ethanamine hydrochloride] | – | 60 | < 50 | ≤ 10 |
| CNC[C@H]1C=Cc2cccc(-c3c(Cl)cccc3Cl)c2O1 [Compound 59, {[(2R)-8-(2,6-dichlorophenyl)-2H-chromen-2-yl]methyl}methylamine hydrochloride] | – | 90 | < 50 | ≤ 10 |
| NC[C@H]1C=Cc2cccc(-c3c(Cl)cccc3Cl)c2O1 [Compound 60, {[(2R)-8-(2,6-dichlorophenyl)-2H-chromen-2-yl]methyl}amine hydrochloride] | – | 100 | < 50 | ≤ 10 |
| CNCC1C=Cc2cc(F)cc(-c3ccccc3Cl)c2O1 (centres unmarked) [Compound 61, {[8-(2-chlorophenyl)-6-fluoro-2H-chromen-2-yl]methyl}methylamine hydrochloride] | – | 90 | < 50 | ≤ 10 |
| NCC1C=Cc2cc(F)cc(-c3ccccc3Cl)c2O1 (centres unmarked) [Compound 62, {[8-(2-chlorophenyl)-6-fluoro-2H-chromen-2-yl]methyl}amine hydrochloride] | – | 100 | < 50 | 10 to 50 |
| NC[C@H]1C=Cc2cc(F)cc(-c3cc(Cl)ccc3Cl)c2O1 [Compound 63, {[(2R)-8-(2,5-dichlorophenyl)-6-fluoro-2H-chromen-2-yl]methyl}amine hydrochloride] | – | 90 | < 50 | ≤ 10 |
| NC[C@H]1C=Cc2cc(F)cc(-c3ccccc3Cl)c2O1 [Compound 64, {[(2R)-8-(2-chlorophenyl)-6-fluoro-2H-chromen-2-yl]methyl}amine hydrochloride] | – | 90 | < 50 | ≤ 10 |
| COc1ccccc1-c1cc(F)cc2c1O[C@@H](CN)C=C2 [Compound 65, {[(2R)-6-fluoro-8-(2-methoxyphenyl)-2H-chromen-2-yl]methyl}amine hydrochloride] | – | 80 | < 50 | ≤ 10 |
| NC[C@H]1C=Cc2cc(F)cc(-c3c(Cl)cccc3Cl)c2O1 [Compound 66, {[(2R)-8-(2,6-dichlorophenyl)-6-fluoro-2H-chromen-2-yl]methyl}amine hydrochloride] | – | 90 | < 50 | ≤ 10 |
| NC[C@H]1CCCc2cccc(-c3c(Cl)cccc3Cl)c2O1 [Compound 67, {[(2R)-9-(2,6-dichlorophenyl)-2,3,4,5-tetrahydro-1-benzoxepin-2-yl]methyl}amine hydrochloride] | – | 80 | 50 to 200 | 10 to 50 |
| NC[C@H]1CCCc2cc(F)cc(-c3c(Cl)cccc3Cl)c2O1 [Compound 68, {[(2R)-9-(2,6-dichlorophenyl)-7-fluoro-2,3,4,5-tetrahydro-1-benzoxepin-2-yl]methyl}amine hydrochloride] | – | 80 | 50 to 200 | 10 to 50 |
